Laboratory results taken from ChEMBL document CHEMBL1126846, “Two new unsaturated fatty acid ethanolamides in brain that bind to the cannabinoid receptor” (J Med Chem, 1993).

Target: Cannabinoid receptor (Mus musculus, UniProt P47746+P47936)
Test: Ability to displace [3H]HU-243 binding to cannabinoid receptor in synaptosomal membrane
Format: cell membranes

Row | Structure (SMILES) | Ki [nM]
1 | CCCCC/C=C\C/C=C\C/C=C\C/C=C\CCCCCC(=O)NCCO | 34.4
2 | CCCCC/C=C\C/C=C\C/C=C\CCCCCCCC(=O)NCCO | 53.4
